From publication PMC5218480 (PLoS ONE, 2017)

Test system: MV-4-11 cells
Test: Gene expression microarray analysis (Affymetrix PrimeView) and GSEA
Format: cell-based, human
Parameters: RFU PODN (11730768_x_at) / Fold change /veh PODN (11730768_x_at) / RFU LINC00158 (11744669_a_at) / Fold change /veh LINC00158 (11744669_a_at) / RFU DUSP10 (11751237_a_at) / Fold change /veh DUSP10 (11751237_a_at) / RFU ID3 (11757404_x_at) / Fold change /veh ID3 (11757404_x_at) / RFU PLEKHG5 (11737974_s_at) / Fold change /veh PLEKHG5 (11737974_s_at) / RFU LRRC4B (11730491_at) / Fold change /veh LRRC4B (11730491_at) / RFU GIMAP4 (11747438_a_at) / Fold change /veh GIMAP4 (11747438_a_at) / RFU KRT8 (11758183_x_at) / Fold change /veh KRT8 (11758183_x_at) / RFU CNN1 (11734310_a_at) / Fold change /veh CNN1 (11734310_a_at) / RFU VPS37D (11726825_at) / Fold change /veh VPS37D (11726825_at) / RFU C10orf10 (11716522_x_at) / Fold change /veh C10orf10 (11716522_x_at) / RFU KIR2DL2 /// KIR2DL4 /// KIR2DL5A /// KIR2DL5B /// KIR2DS1 /// KIR2DS2 /// KIR2DS3 /// KIR2DS4 /// KIR3DL3 /// KIR3DL3 /// KIR3DS1 (11738374_at) / Fold change /veh KIR2DL2 /// KIR2DL4 /// KIR2DL5A /// KIR2DL5B /// KIR2DS1 /// KIR2DS2 /// KIR2DS3 /// KIR2DS4 /// KIR3DL3 /// KIR3DL3 /// KIR3DS1 (11738374_at) / RFU C1QL1 (11718748_at) / Fold change /veh C1QL1 (11718748_at) / RFU TMPRSS4 (11747572_a_at) / Fold change /veh TMPRSS4 (11747572_a_at) / RFU HAMP (11756126_x_at) / Fold change /veh HAMP (11756126_x_at) / RFU RNFT2 (11725882_a_at) / Fold change /veh RNFT2 (11725882_a_at) / RFU NR4A2 (11747474_a_at) / Fold change /veh NR4A2 (11747474_a_at) / RFU ABCC12 (11746883_a_at) / Fold change /veh ABCC12 (11746883_a_at) / RFU TMEM136 (11760407_x_at) / Fold change /veh TMEM136 (11760407_x_at) / RFU CLDN22 /// WWC2 (11732394_at) / Fold change /veh CLDN22 /// WWC2 (11732394_at) / RFU HLA-DPB1 (11760878_x_at) / Fold change /veh HLA-DPB1 (11760878_x_at) / RFU SPINT1 (11716480_a_at) / Fold change /veh SPINT1 (11716480_a_at) / RFU GAP43 (11754022_s_at) / Fold change /veh GAP43 (11754022_s_at) / RFU A4GNT (11735810_at) / Fold change /veh A4GNT (11735810_at) / RFU PRB3 (11715151_x_at) / Fold change /veh PRB3 (11715151_x_at) / RFU TUBB4B (11761932_at) / Fold change /veh TUBB4B (11761932_at) / RFU CAPN14 (11732068_a_at) / Fold change /veh CAPN14 (11732068_a_at) / RFU TMCC2 (11721928_a_at) / Fold change /veh TMCC2 (11721928_a_at) / RFU IRGQ (11745062_a_at) / Fold change /veh IRGQ (11745062_a_at) / RFU FAM174B (11720279_a_at) / Fold change /veh FAM174B (11720279_a_at) / RFU TMPRSS4 (11748680_a_at) / Fold change /veh TMPRSS4 (11748680_a_at) / RFU FAM212B (11763350_a_at) / Fold change /veh FAM212B (11763350_a_at) / RFU PLEKHG5 (11743358_a_at) / Fold change /veh PLEKHG5 (11743358_a_at) / RFU ZSCAN30 (11745921_a_at) / Fold change /veh ZSCAN30 (11745921_a_at) / RFU CMKLR1 (11741424_a_at) / Fold change /veh CMKLR1 (11741424_a_at) / RFU LOC101060620 /// MAPK8IP1 (11723275_at) / Fold change /veh LOC101060620 /// MAPK8IP1 (11723275_at) / RFU SPTSSB (11747773_x_at) / Fold change /veh SPTSSB (11747773_x_at) / RFU PRSS12 (11739890_at) / Fold change /veh PRSS12 (11739890_at) / RFU BIN1 (11741810_x_at) / Fold change /veh BIN1 (11741810_x_at) / RFU WNT11 (11732464_a_at) / Fold change /veh WNT11 (11732464_a_at) / RFU C10orf10 (11716521_a_at) / Fold change /veh C10orf10 (11716521_a_at) / RFU C5orf56 (11738089_at) / Fold change /veh C5orf56 (11738089_at) / RFU CYB561 (11721691_x_at) / Fold change /veh CYB561 (11721691_x_at) / RFU ANKRD19P (11752326_a_at) / Fold change /veh ANKRD19P (11752326_a_at) / RFU OR2T12 /// OR2T33 /// OR2T8 (11738714_s_at) / Fold change /veh OR2T12 /// OR2T33 /// OR2T8 (11738714_s_at) / RFU VCAN (11748164_a_at) / Fold change /veh VCAN (11748164_a_at) / RFU JSRP1 (11732532_at) / Fold change /veh JSRP1 (11732532_at) / RFU KRTAP10-11 (11738290_x_at) / Fold change /veh KRTAP10-11 (11738290_x_at) / RFU MYO3A (11730013_a_at) / Fold change /veh MYO3A (11730013_a_at) / RFU EBF3 (11725865_a_at) / Fold change /veh EBF3 (11725865_a_at) / RFU CAMK2N1 (11719241_x_at) / Fold change /veh CAMK2N1 (11719241_x_at) / RFU C5orf56 (11738088_a_at) / Fold change /veh C5orf56 (11738088_a_at) / RFU OLFML3 (11715873_a_at) / Fold change /veh OLFML3 (11715873_a_at) / RFU LOC100653217 /// NTM (11731650_a_at) / Fold change /veh LOC100653217 /// NTM (11731650_a_at) / RFU MAPK11 (11762145_a_at) / Fold change /veh MAPK11 (11762145_a_at) / RFU FIZ1 (11724087_x_at) / Fold change /veh FIZ1 (11724087_x_at) / RFU OASL (11726364_x_at) / Fold change /veh OASL (11726364_x_at) / RFU SOX15 (11748057_x_at) / Fold change /veh SOX15 (11748057_x_at) / RFU CD79A (11719716_a_at) / Fold change /veh CD79A (11719716_a_at) / RFU HIST1H1D (11736915_at) / Fold change /veh HIST1H1D (11736915_at) / RFU CASKIN2 (11723855_a_at) / Fold change /veh CASKIN2 (11723855_a_at) / RFU LOC730098 (11760151_x_at) / Fold change /veh LOC730098 (11760151_x_at) / RFU OR4N2 (11742367_at) / Fold change /veh OR4N2 (11742367_at) / RFU PRRT2 (11749266_a_at) / Fold change /veh PRRT2 (11749266_a_at) / RFU SNX32 (11753110_a_at) / Fold change /veh SNX32 (11753110_a_at) / RFU CDHR5 (11726645_a_at) / Fold change /veh CDHR5 (11726645_a_at) / RFU RCAN1 (11760418_a_at) / Fold change /veh RCAN1 (11760418_a_at) / RFU FAM167A (11723789_a_at) / Fold change /veh FAM167A (11723789_a_at) / RFU FAM26E (11764081_at) / Fold change /veh FAM26E (11764081_at) / RFU ISYNA1 (11749810_s_at) / Fold change /veh ISYNA1 (11749810_s_at) / RFU ACY1 (11761880_at) / Fold change /veh ACY1 (11761880_at) / RFU 11764098_at / Fold change /veh 11764098_at / RFU SAMD14 (11745864_x_at) / Fold change /veh SAMD14 (11745864_x_at) / RFU NPB (11741838_a_at) / Fold change /veh NPB (11741838_a_at) / RFU TMPRSS6 (11731388_a_at) / Fold change /veh TMPRSS6 (11731388_a_at) / RFU KRTAP10-2 (11738614_at) / Fold change /veh KRTAP10-2 (11738614_at) / RFU ARHGAP8 /// PRR5-ARHGAP8 (11727945_x_at) / Fold change /veh ARHGAP8 /// PRR5-ARHGAP8 (11727945_x_at) / RFU KRTAP5-7 /// NADSYN1 (11734609_at) / Fold change /veh KRTAP5-7 /// NADSYN1 (11734609_at) / RFU RASL12 (11751679_a_at) / Fold change /veh RASL12 (11751679_a_at) / RFU CDKN2B (11736163_a_at) / Fold change /veh CDKN2B (11736163_a_at) / RFU PRF1 (11729649_at) / Fold change /veh PRF1 (11729649_at) / RFU, ZNF638 /// ZNF638-IT1 / Fold change vs veh, ZNF638 /// ZNF638-IT1 / RFU, PANK3 / Fold change vs veh, PANK3 / RFU, SH3YL1 / Fold change vs veh, SH3YL1 / RFU, ZEB2 / Fold change vs veh, ZEB2 / RFU, NRIP1 / Fold change vs veh, NRIP1 / RFU, PTTG1IP / Fold change vs veh, PTTG1IP / RFU, CAPN2 / Fold change vs veh, CAPN2 / RFU, MED14 / Fold change vs veh, MED14 / RFU, SNORA58 / Fold change vs veh, SNORA58 / RFU, C1orf63 / Fold change vs veh, C1orf63 / RFU, LRRFIP1 / Fold change vs veh, LRRFIP1 / RFU, NDUFAF7 / Fold change vs veh, NDUFAF7 / RFU, SLC12A2 / Fold change vs veh, SLC12A2 / RFU, IBTK / Fold change vs veh, IBTK / RFU, ESF1 / Fold change vs veh, ESF1 / Fold change vs veh, TMEM50B / RFU, TAOK1 / Fold change vs veh, TAOK1 / RFU, ACBD3 / Fold change vs veh, ACBD3 / RFU, TMA16 / Fold change vs veh, TMA16 / RFU, RWDD3 / Fold change vs veh, RWDD3 / RFU, BCAT1 / Fold change vs veh, BCAT1 / RFU, EDEM3 / Fold change vs veh, EDEM3 / RFU, TMEM33 / Fold change vs veh, TMEM33 / RFU, WDR75 / Fold change vs veh, WDR75 / RFU, AHCTF1 / Fold change vs veh, AHCTF1 / RFU, TFRC / Fold change vs veh, TFRC / RFU, ZDHHC17 / Fold change vs veh, ZDHHC17 / RFU, NOM1 / Fold change vs veh, NOM1 / RFU, ARL8B / Fold change vs veh, ARL8B / RFU, ZBTB11 / Fold change vs veh, ZBTB11 / RFU, TAMM41 / Fold change vs veh, TAMM41 / RFU, KIAA1704 /// LOC100996395 / Fold change vs veh, KIAA1704 /// LOC100996395 / RFU, ING1 / Fold change vs veh, ING1 / RFU, TRMT61B / Fold change vs veh, TRMT61B / RFU, FUBP3 / Fold change vs veh, FUBP3 / RFU, TP53 / Fold change vs veh, TP53 / RFU, TNKS2 / Fold change vs veh, TNKS2 / RFU, ZFP14 / Fold change vs veh, ZFP14 / RFU, ACTR2 / Fold change vs veh, ACTR2 / RFU, PPP3R1 / Fold change vs veh, PPP3R1 / RFU, PIK3R1 / Fold change vs veh, PIK3R1 / RFU, HNRNPA1 / Fold change vs veh, HNRNPA1 / RFU, RNF170 / Fold change vs veh, RNF170 / RFU, ZNF28 / Fold change vs veh, ZNF28 / RFU, RNGTT / Fold change vs veh, RNGTT / RFU, OGT / Fold change vs veh, OGT / RFU, BRD1 / Fold change vs veh, BRD1 / RFU, MARS / Fold change vs veh, MARS / RFU, ZNF655 / Fold change vs veh, ZNF655 / RFU, FAHD1 / Fold change vs veh, FAHD1 / RFU, BDP1 / Fold change vs veh, BDP1 / RFU, LRRCC1 / Fold change vs veh, LRRCC1 / RFU, ARID1A / Fold change vs veh, ARID1A / RFU, ZNF146 / Fold change vs veh, ZNF146 / RFU, ZNF330 / Fold change vs veh, ZNF330 / RFU, GPN3 / Fold change vs veh, GPN3 / RFU, C9orf123 / Fold change vs veh, C9orf123 / RFU, N4BP2L2 / Fold change vs veh, N4BP2L2 / RFU, ARFIP1 / Fold change vs veh, ARFIP1 / RFU, FAM179B / Fold change vs veh, FAM179B / RFU, BCL10 / Fold change vs veh, BCL10 / RFU, UHRF1BP1L / Fold change vs veh, UHRF1BP1L / RFU, BET1 / Fold change vs veh, BET1 / RFU, CNOT2 / Fold change vs veh, CNOT2 / RFU, ZNF268 / Fold change vs veh, ZNF268 / Fold change vs veh, ZNF507 / RFU, DGCR2 / Fold change vs veh, DGCR2 / RFU, WDSUB1 / Fold change vs veh, WDSUB1 / Fold change vs veh, HSP90B1 /// MIR3652 / RFU, ADSS / Fold change vs veh, ADSS / RFU, GK / Fold change vs veh, GK / RFU, ZNF148 / Fold change vs veh, ZNF148 / RFU, TAF9 / Fold change vs veh, TAF9 / RFU, SLC1A5 / Fold change vs veh, SLC1A5 / RFU, SLMO2 / Fold change vs veh, SLMO2 / RFU, ABCC4 / Fold change vs veh, ABCC4 / RFU, LOC101060439 /// RAP1B / Fold change vs veh, LOC101060439 /// RAP1B / RFU, RFX7 / Fold change vs veh, RFX7 / RFU, GTPBP10 / Fold change vs veh, GTPBP10 / RFU, CNEP1R1 / Fold change vs veh, CNEP1R1 / RFU, BIVM-ERCC5 /// ERCC5 / Fold change vs veh, BIVM-ERCC5 /// ERCC5 / RFU, ILF3 / Fold change vs veh, ILF3 / RFU 11762660_at / Fold change /veh 11762660_at / RFU VCAN (11757783_s_at) / Fold change /veh VCAN (11757783_s_at) / RFU DDX43 (11728927_at) / Fold change /veh DDX43 (11728927_at) / RFU KRT8 (11758188_x_at) / Fold change /veh KRT8 (11758188_x_at) / RFU NKD1 (11759106_at) / Fold change /veh NKD1 (11759106_at) / RFU SRD5A1 (11742802_a_at) / Fold change /veh SRD5A1 (11742802_a_at) / RFU TPSAB1 /// TPSB2 (11721975_s_at) / Fold change /veh TPSAB1 /// TPSB2 (11721975_s_at) / RFU GSTM3 (11746129_a_at) / Fold change /veh GSTM3 (11746129_a_at) / RFU IL23R (11737362_x_at) / Fold change /veh IL23R (11737362_x_at) / RFU TMEM51 (11727254_a_at) / Fold change /veh TMEM51 (11727254_a_at) / RFU PIWIL2 (11732686_x_at) / Fold change /veh PIWIL2 (11732686_x_at) / RFU ORM1 (11744905_x_at) / Fold change /veh ORM1 (11744905_x_at) / RFU CCDC152 (11743942_at) / Fold change /veh CCDC152 (11743942_at) / RFU ECM1 (11717891_a_at) / Fold change /veh ECM1 (11717891_a_at) / RFU IL23R (11748794_a_at) / Fold change /veh IL23R (11748794_a_at) / RFU TNFAIP8L3 (11732012_x_at) / Fold change /veh TNFAIP8L3 (11732012_x_at) / RFU MBOAT4 (11741988_at) / Fold change /veh MBOAT4 (11741988_at) / RFU 11764193_at / Fold change /veh 11764193_at / RFU TMEM53 (11763286_at) / Fold change /veh TMEM53 (11763286_at) / RFU MAGEB2 (11727129_at) / Fold change /veh MAGEB2 (11727129_at) / RFU TMEM200A (11744735_a_at) / Fold change /veh TMEM200A (11744735_a_at) / RFU CCDC152 (11751479_a_at) / Fold change /veh CCDC152 (11751479_a_at) / RFU FAM211A (11726209_a_at) / Fold change /veh FAM211A (11726209_a_at) / RFU RGS16 (11746705_a_at) / Fold change /veh RGS16 (11746705_a_at) / RFU VCAN (11755009_s_at) / Fold change /veh VCAN (11755009_s_at) / RFU RHOB (11743442_s_at) / Fold change /veh RHOB (11743442_s_at) / RFU RGS16 (11720943_a_at) / Fold change /veh RGS16 (11720943_a_at) / RFU RGS16 (11720944_at) / Fold change /veh RGS16 (11720944_at) / RFU, VPS4B / Fold change vs veh, VPS4B / RFU, CREB1 / Fold change vs veh, CREB1 / RFU, DNAJC13 / Fold change vs veh, DNAJC13 / RFU, GNAQ / Fold change vs veh, GNAQ / RFU, CDK5R1 / Fold change vs veh, CDK5R1 / RFU, ZRANB3 / Fold change vs veh, ZRANB3 / RFU, CUL4A / Fold change vs veh, CUL4A / RFU, CCNY / Fold change vs veh, CCNY / RFU, UFL1 / Fold change vs veh, UFL1 / RFU, COG3 / Fold change vs veh, COG3 / RFU, DIAPH2 / Fold change vs veh, DIAPH2 / RFU, SKA2 / Fold change vs veh, SKA2 / RFU, AFF3 / Fold change vs veh, AFF3 / RFU, LMF1 / Fold change vs veh, LMF1 / RFU, IPO11 / Fold change vs veh, IPO11 / RFU, DFFB / Fold change vs veh, DFFB / RFU, FOXP1 / Fold change vs veh, FOXP1 / RFU, CARD8 / Fold change vs veh, CARD8 / RFU, STRN3 / Fold change vs veh, STRN3 / RFU, ADK / Fold change vs veh, ADK / RFU, RASSF2 / Fold change vs veh, RASSF2 / RFU, WIPF1 / Fold change vs veh, WIPF1 / RFU, LARP1B / Fold change vs veh, LARP1B / RFU, RASA1 / Fold change vs veh, RASA1 / RFU, RB1 / Fold change vs veh, RB1 / RFU, PPFIA1 / Fold change vs veh, PPFIA1 / RFU, MAT2A / Fold change vs veh, MAT2A / RFU, CCT5 / Fold change vs veh, CCT5 / RFU, WDR92 / Fold change vs veh, WDR92 / RFU, CUX1 / Fold change vs veh, CUX1 / RFU, TTC7A / Fold change vs veh, TTC7A / RFU, TMEM135 / Fold change vs veh, TMEM135 / RFU, DEPTOR / Fold change vs veh, DEPTOR / RFU, CPM / Fold change vs veh, CPM / RFU, DNAJB6 / Fold change vs veh, DNAJB6 / RFU, CACNA2D3 / Fold change vs veh, CACNA2D3 / RFU, DTX4 / Fold change vs veh, DTX4 / RFU, TFCP2 / Fold change vs veh, TFCP2 / RFU, GMCL1 /// GMCL1P1 / Fold change vs veh, GMCL1 /// GMCL1P1 / RFU, AEBP2 / Fold change vs veh, AEBP2 / RFU, SNHG1 /// SNORD22 /// SNORD25 /// SNORD26 /// SNORD27 /// SNORD28 /// SNORD29 /// SNORD31 / Fold change vs veh, SNHG1 /// SNORD22 /// SNORD25 /// SNORD26 /// SNORD27 /// SNORD28 /// SNORD29 /// SNORD31 / Fold change (Aza/veh), C12orf56 (ProbeSet 11735607_a_at) / Fold change (ACY-1035/veh), C12orf56 (ProbeSet 11735607_a_at) / Fold change (Aza/veh), FGFR1OP (ProbeSet 11751329_s_at) / Fold change (ACY-1035/veh), FGFR1OP (ProbeSet 11751329_s_at) / Fold change (Aza/veh), VPS36 (ProbeSet 11739960_a_at) / Fold change (ACY-1035/veh), VPS36 (ProbeSet 11739960_a_at) / RFU SYPL1 (11715823_x_at) / Fold change /veh SYPL1 (11715823_x_at) / RFU IGFBP7 (11715501_s_at) / Fold change /veh IGFBP7 (11715501_s_at) / RFU REEP3 (11722064_at) / Fold change /veh REEP3 (11722064_at) / RFU IGLL1 (11728026_x_at) / Fold change /veh IGLL1 (11728026_x_at): dose or concentration left out as unconfirmed
Settings: MV-4-11 cells, 48 hours

Question: Which “Fold change /veh IGLL1 (11728026_x_at)” value does the source give for `Nc1ncn([C@@H]2O[C@H](CO)[C@@H](O)[C@H]2O)c(=O)n1` [azacitidine] here?
Answer: 0.66
